From paper PMC3565387 (Bioorganic & medicinal chemistry, 2012)

How the values were obtained:
human neutrophils = assay: Ca2+ mobilization in human neutrophils; type: cell-based; conditions: % of response induced by 5 nM fMLF
FPR2 [1] = target: T1, FPR2 (Homo sapiens, UniProt P25090); assay: Ca2+ mobilization in HL-60 cells transfected with FPR2; type: cell-based; conditions: HL-60-FPR2 cells; % of response induced by 5 nM WKYMVm
T1 sequence (P25090 1-351): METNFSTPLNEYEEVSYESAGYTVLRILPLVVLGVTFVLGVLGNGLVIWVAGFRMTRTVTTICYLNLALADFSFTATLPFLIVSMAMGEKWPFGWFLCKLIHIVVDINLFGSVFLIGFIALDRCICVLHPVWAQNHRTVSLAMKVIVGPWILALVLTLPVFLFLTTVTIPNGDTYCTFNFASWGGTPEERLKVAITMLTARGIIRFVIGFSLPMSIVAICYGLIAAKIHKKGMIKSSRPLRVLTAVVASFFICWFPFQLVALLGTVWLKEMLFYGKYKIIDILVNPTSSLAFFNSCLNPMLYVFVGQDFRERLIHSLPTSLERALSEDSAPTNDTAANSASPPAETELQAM

FPR1 [2] = target: T2, FPR1 (Homo sapiens, UniProt P21462); assay: Ca2+ mobilization in HL-60 cells transfected with FPR1; type: cell-based; conditions: HL-60-FPR1 cells; % of response induced by 5 nM fMLF
T2 sequence (P21462 1-350): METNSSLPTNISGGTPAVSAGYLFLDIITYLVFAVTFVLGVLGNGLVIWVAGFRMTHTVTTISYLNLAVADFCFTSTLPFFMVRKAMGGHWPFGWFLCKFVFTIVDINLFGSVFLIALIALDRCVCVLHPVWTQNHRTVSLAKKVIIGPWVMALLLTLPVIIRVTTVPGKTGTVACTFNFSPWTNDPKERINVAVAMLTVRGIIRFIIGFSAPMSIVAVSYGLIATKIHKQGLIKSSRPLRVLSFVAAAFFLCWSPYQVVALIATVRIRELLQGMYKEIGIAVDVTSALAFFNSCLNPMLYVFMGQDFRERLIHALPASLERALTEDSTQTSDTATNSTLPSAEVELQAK

FPR1 [3] = target: T2, FPR1; assay: PathHunter β-arrestin recruitment in CHO-K1 FPR1 cells; type: cell-based; conditions: % of response induced by 5 nM WKYMVm
FPR2 [4] = target: T1, FPR2; assay: PathHunter β-arrestin recruitment in CHO-K1 FPR2 cells; type: cell-based
FPR2/ALX = conditions: read-out: EC50 at FPR2/ALX; endogenous ligand; cited from earlier work

Row | Ca2+ mobilization FPR2 efficacy (FPR2 [1]) [%] | Ca2+ mobilization FPR1 efficacy (FPR1 [2]) [%] | Compound | Ca2+ mobilization hPMN efficacy (human neutrophils) [%] | other results
1 | – | – | COc1cccc(Cc2cc(C)nn([C@H](C)C(=O)Nc3ccc(Br)cc3)c2=O)c1 [R-(−)-5a, R-(−)-N-(4-Bromophenyl)-2-[5-(3-methoxybenzyl)-3-methyl-6-oxopyridazin-1(6H)-yl]propanamide] | 110 | –
2 | 95 | 95 | CCC(C(=O)Nc1ccc(Br)cc1)n1nc(C)cc(Cc2cccc(OC)c2)c1=O (racemic) [(±)-5b, (±)-N-(4-Bromophenyl)-2-[5-(3-methoxybenzyl)-3-methyl-6-oxopyridazin-1(6H)-yl]butanamide] | 145 | –
3 | 120 | 85 | CCC[C@H](C(=O)Nc1ccc(Br)cc1)n1nc(C)cc(Cc2cccc(OC)c2)c1=O [R-(−)-5c, R-(−)-N-(4-Bromophenyl)-2-[5-(3-methoxybenzyl)-3-methyl-6-oxopyridazin-1(6H)-yl]pentanamide] | 145 | β-Arrestin recruitment FPR1 efficacy (FPR1 [3]): 120%; β-Arrestin recruitment FPR2 efficacy (FPR2 [4]; CHO-K1 FPR2 cells, % of response induced by 5 nM WKYMVm): 100%
4 | – | – | CCCCC[C@H](O)/C=C/C=C\C=C\C=C\[C@@H](O)[C@@H](O)CCCC(=O)O [LXA4, lipoxin A4] | – | EC50 (FPR2/ALX): 1 nM
5 | – | – | COc1cccc(Cc2cc(C)nn([C@@H](C)C(=O)Nc3ccc(Br)cc3)c2=O)c1 [S-(+)-5a, S-(+)-N-(4-Bromophenyl)-2-[5-(3-methoxybenzyl)-3-methyl-6-oxopyridazin-1(6H)-yl]propanamide] | 65 | –
6 | – | – | CSCC[C@H](NC=O)C(=O)N[C@@H](CC(C)C)C(=O)N[C@@H](Cc1ccccc1)C(=O)O [fMLF, N-formyl-methionine-leucine-phenylalanine, reference compound] | – | β-Arrestin recruitment FPR2 (in words) (FPR2 [4]; FPR2 CHO-K1 cells): no recruitment
